{"source": "the NIST ThermoML archive (doi:10.1016/j.fluid.2012.06.017)", "note": "± gives the expanded uncertainty stated by the source.", "data": [{"settings": "Liquid; Pulse-heating method", "units": {"Critical pressure": "kPa", "Critical temperature": "K"}, "values": [{"smiles": "CC(C)O[Si](OC(C)C)(OC(C)C)OC(C)C", "note": "[isopropyl silicate ((C3H7O)4Si)]", "Critical pressure": "1310 ± 80", "Critical temperature": "587 ± 12"}, {"smiles": "CC(C)(C)[O-].CC(C)(C)[O-].CC(C)(C)[O-].CC(C)(C)[O-].[Ti+4]", "note": "[titanium(IV) 2-methylpropan-2-olate]", "Critical pressure": "1070 ± 60", "Critical temperature": "657 ± 14"}, {"smiles": "CC(C)[O-].CC(C)[O-].CC(C)[O-].CC(C)[O-].[Ti+4]", "note": "[titanium(IV) 2-propanolate]", "Critical pressure": "1140 ± 60", "Critical temperature": "641 ± 12"}]}]}
